Measurements taken from paper PMC5584945, “Evaluation of robenidine analog NCL195 as a novel broad-spectrum antibacterial agent” (PLoS ONE, 2017).
Values after ≈ are worked out from the molar mass of the structure shown. “Also recorded” adds a separate entry of the source. Where two headings read alike, the source gives them in different places.

Legend:
S. aureus = assay: MIC, broth micro-dilution (CLSI); assay type: cell-based, Staphylococcus aureus; details: for Fold increase of MIC range in the presence of 10% FBS: 10% FBS versus no FBS; for MIC / MIC50 / MIC90: Staphylococcus aureus
[1] = Pharmacokinetics after IV administration; assay type: in vivo, mouse
Procedure: Mice had access to food and water ad libitum throughout the pre- and post-dose sampling period. The Animal Ethics Committee of the Monash Institute of Pharmaceutical Sciences reviewed and approved all animal PK experiments (approval number MIPS.2013.33). The PK studies were conducted in compliance with the Australian Code of Practice for the Care and Use of Animals for Scientific Purposes (7th Edition 2004). […] For both the IV and IP administration, a maximum of two samples were obtained from each mouse, with samples being taken either via submandibular bleed (approximately 120 μl; conscious sampling) or terminal cardiac puncture (0.6 ml; under inhaled Isoflurane anesthesia). No urine samples were collected as mice were housed in bedded cages during the study. […] Mice were humanely sacrificed by cervical dislocation while under anaesthesia (using gaseous isoflurane) at the end of experiments. Blood was collected directly into polypropylene Eppendorf tubes containing heparin as anti-coagulant, and stabilization cocktail (containing Complete (a protease inhibitor cocktail with EDTA) and potassium fluoride) to minimize the potential for ex vivo degradation of the test compounds in blood/plasma samples. Once collected, blood samples were centrifuged immediately, supernatant plasma was removed, and stored at either -80°C (for the IV exposure) or at -20°C (for the IP exposure) until analysis by liquid chromatography-mass spectrometry (LC-MS). Following protein precipitation with acetonitrile, thawed plasma samples were analyzed by LC-MS (Waters Micromass Quattro Premier coupled to a Waters Acquity UPLC) using positive electrospray ionization operating in MRM mode.

[2] = ATCC 12600 / MSSA, ATCC12600 [Xen29] (MSSA), 10% FBS
[3] = ATCC 12600 / MSSA, ATCC12600 [Xen29] (MSSA), absence of FBS
[4] = ATCC 29213 / MSSA, ATCC29213 MSSA (ST5), 10% FBS, read-out: MIC
[5] = ATCC 29213 / MSSA, ATCC29213 MSSA (ST5), absence of FBS, read-out: MIC
[6] = ATCC 49775 / MSSA, ATCC 49775 (MSSA), 10% FBS, read-out: MIC
[7] = ATCC 49775 / MSSA, ATCC 49775 (MSSA), absence of FBS, read-out: MIC
[8] = IRISH 1 – HA-EMRSA (ST8), 10% FBS, read-out: MIC
[9] = IRISH 1 – HA-EMRSA (ST8), absence of FBS, read-out: MIC
[10] = IRISH 2 – HA-EMRSA (ST8), 10% FBS, read-out: MIC
[11] = IRISH 2 – HA-EMRSA (ST8), absence of FBS, read-out: MIC
[12] = MRSA / USA300, USA 300 - MRSA (ST8), 10% FBS, read-out: MIC
[13] = MRSA / USA300, USA 300 - MRSA (ST8), absence of FBS, read-out: MIC
[14] = MRSA, AUS2-MRSA (ST239), 10% FBS, read-out: MIC
[15] = MRSA, AUS2-MRSA (ST239), absence of FBS, read-out: MIC
[16] = MRSA, AUS3-MRSA (ST239), 10% FBS, read-out: MIC
[17] = MRSA, AUS3-MRSA (ST239), absence of FBS, read-out: MIC
[18] = MRSA, Classic–HA-MRSA (ST250), 10% FBS, read-out: MIC
[19] = MRSA, Classic–HA-MRSA (ST250), absence of FBS, read-out: MIC
[20] = MRSA, NY JAPAN – HA MRSA (ST5), 10% FBS, read-out: MIC
[21] = MRSA, NY JAPAN – HA MRSA (ST5), absence of FBS, read-out: MIC
[22] = MRSA, ST398–CA-MRSA-V (ST398), 10% FBS, read-out: MIC
[23] = MRSA, ST398–CA-MRSA-V (ST398), absence of FBS, read-out: MIC
[24] = S2 Table isolates, absence of FBS
[25] = TAIWAN PVL+ – CA-cMRSA (ST59), 10% FBS, read-out: MIC
[26] = TAIWAN PVL+ – CA-cMRSA (ST59), absence of FBS, read-out: MIC
[27] = UK 15 PVL+ – HA-EMRSA (ST22), 10% FBS, read-out: MIC
[28] = UK 15 PVL+ – HA-EMRSA (ST22), absence of FBS, read-out: MIC
[29] = UK 15 – HA-EMRSA (ST22), 10% FBS, read-out: MIC
[30] = UK 15 – HA-EMRSA (ST22), absence of FBS, read-out: MIC
[31] = UK 16 – HA- EMRSA (ST36), 10% FBS, read-out: MIC
[32] = UK 16 – HA- EMRSA (ST36), absence of FBS, read-out: MIC
[33] = UK 17 – HA-EMRSA (ST247), 10% FBS, read-out: MIC
[34] = UK 17 – HA-EMRSA (ST247), absence of FBS, read-out: MIC
[35] = male Swiss outbred mice, IV 5 mg/kg, 5 mg/kg

For `C/C(=N\NC(=N)N/N=C(\C)c1ccc(C(C)(C)C)cc1)c1ccc(C(C)(C)C)cc1` [NCL219, (E)-N'-((E)-1-(4-(tert-butyl)phenyl)ethylidene)-2-(1-(4-(tert-butyl)phenyl)ethylidene)hydrazine-1-carboximidhydrazide], the “Fold increase of MIC range in the presence of 10% FBS” value (S. aureus) was “remained essentially the same”, the MIC (S. aureus; [2]) was 4 µg/mL (≈ 9.86 µM) and the MIC (S. aureus; [3]) was 32 µg/mL (≈ 78.9 µM). It also gave an MIC (S. aureus; [4]) of 8 µg/mL (≈ 19.7 µM), an MIC (S. aureus; [5]) of 16 µg/mL (≈ 39.4 µM) and an MIC (S. aureus; [6]) of 4 µg/mL (≈ 9.86 µM). It also gave an MIC (S. aureus; [7]) of 32 µg/mL (≈ 78.9 µM), an MIC (S. aureus; [8]) of over 64 µg/mL and an MIC (S. aureus; [9]) of over 64 µg/mL. The MIC (S. aureus; [10]) was 8 µg/mL (≈ 19.7 µM), the MIC (S. aureus; [11]) was 32 µg/mL (≈ 78.9 µM) and the MIC (S. aureus; [12]) was 4 µg/mL (≈ 9.86 µM). The MIC (S. aureus; [13]) was over 64 µg/mL, the MIC (S. aureus; [14]) was 8 µg/mL (≈ 19.7 µM) and the MIC (S. aureus; [15]) was over 64 µg/mL. The MIC (S. aureus; [16]) was 8 µg/mL (≈ 19.7 µM), the MIC (S. aureus; [17]) was 64 µg/mL (≈ 158 µM) and the MIC (S. aureus; MRSA, BENGAL BAY PVL+ – CA-MRSA (ST772), absence of FBS) was 16 µg/mL (≈ 39.4 µM). For the same compound, the MIC (S. aureus; [18]) was 32 µg/mL (≈ 78.9 µM), the MIC (S. aureus; [19]) was 32 µg/mL (≈ 78.9 µM) and the MIC (S. aureus; [20]) was 4 µg/mL (≈ 9.86 µM). The MIC (S. aureus; [21]) was over 64 µg/mL, the MIC (S. aureus; [22]) was over 64 µg/mL and the MIC (S. aureus; [23]) was over 64 µg/mL. For the same compound, the MIC (S. aureus; MRSA, WA2–CA-MRSA (ST78), absence of FBS, read-out: MIC) was over 64 µg/mL, the MIC (S. aureus; MRSA, WA3–CA-MRSA (ST5), absence of FBS, read-out: MIC) was over 64 µg/mL and the MIC (S. aureus; MRSA, WA84–CA-MRSA (ST45), 10% FBS, read-out: MIC) was 8 µg/mL (≈ 19.7 µM). The MIC (S. aureus; MRSA, WA84–CA-MRSA (ST45), absence of FBS, read-out: MIC) was over 64 µg/mL, the MIC50 (S. aureus; S2 Table isolates, 10% FBS) was 8 µg/mL (≈ 19.7 µM) and the MIC90 (S. aureus; S2 Table isolates, 10% FBS) was over 64 µg/mL. For the same compound, the MIC50 (S. aureus; [24]) was 64 µg/mL (≈ 158 µM), the MIC90 (S. aureus; [24]) was over 64 µg/mL and the MIC (S. aureus; [25]) was 32 µg/mL (≈ 78.9 µM). The MIC (S. aureus; [26]) was over 64 µg/mL, the MIC (S. aureus; [27]) was 4 µg/mL (≈ 9.86 µM) and the MIC (S. aureus; [28]) was 32 µg/mL (≈ 78.9 µM). For the same compound, the MIC (S. aureus; [29]) was 8 µg/mL (≈ 19.7 µM), the MIC (S. aureus; [30]) was 64 µg/mL (≈ 158 µM) and the MIC (S. aureus; [31]) was 4 µg/mL (≈ 9.86 µM). For the same compound, the MIC (S. aureus; [32]) was 32 µg/mL (≈ 78.9 µM), the MIC (S. aureus; [33]) was 16 µg/mL (≈ 39.4 µM) and the MIC (S. aureus; [34]) was 64 µg/mL (≈ 158 µM).
In the case of `Cl.N=C(NN=Cc1ccc(Cl)cc1)NN=Cc1ccc(Cl)cc1` [NCL812, 2,2'-bis[(4-chlorophenyl)methylene] carbonimidic dihydrazide hydrochloride], the “Fold increase of MIC range in the presence of 10% FBS” value (S. aureus) was 4-8 fold, the MIC range (S. aureus; 23 isolates) was 2 to 8 µg/mL and the MIC range (S. aureus; S2 Table isolates, 10% FBS) was 32 µg/mL. It also gave an MIC range (S. aureus; [24]) of 2 to 8 µg/mL, an MIC (S. aureus; [2]) of 32 µg/mL and an MIC (S. aureus; [3]) of 4 µg/mL. For the same compound, the MIC (S. aureus; [4]) was 32 µg/mL, the MIC (S. aureus; [5]) was 4 µg/mL and the MIC (S. aureus; [6]) was 32 µg/mL. It also gave an MIC (S. aureus; [7]) of 2 µg/mL, an MIC (S. aureus; [8]) of 32 µg/mL and an MIC (S. aureus; [9]) of 2 µg/mL. It also gave an MIC (S. aureus; [10]) of 32 µg/mL, an MIC (S. aureus; [11]) of 2 µg/mL and an MIC (S. aureus; [12]) of 32 µg/mL. For the same compound, the MIC (S. aureus; [13]) was 2 µg/mL, the MIC (S. aureus; [14]) was 32 µg/mL and the MIC (S. aureus; [15]) was 2 µg/mL. For the same compound, the MIC (S. aureus; [16]) was 32 µg/mL, the MIC (S. aureus; [17]) was 2 µg/mL and the MIC (S. aureus; MRSA, BENGAL BAY PVL+ – CA-MRSA (ST772), 10% FBS, read-out: MIC) was 32 µg/mL. The MIC (S. aureus; MRSA, BENGAL BAY PVL+ – CA-MRSA (ST772), absence of FBS, read-out: MIC) was 2 µg/mL, the MIC (S. aureus; [18]) was 32 µg/mL and the MIC (S. aureus; [19]) was 2 µg/mL. It also gave an MIC (S. aureus; [20]) of 32 µg/mL, an MIC (S. aureus; [21]) of 2 µg/mL and an MIC (S. aureus; MRSA, QLD PVL+ –CA-MRSA (ST93), 10% FBS, read-out: MIC) of 32 µg/mL. For the same compound, the MIC (S. aureus; MRSA, QLD PVL+ –CA-MRSA (ST93), absence of FBS, read-out: MIC) was 2 µg/mL, the MIC (S. aureus; [22]) was 32 µg/mL and the MIC (S. aureus; [23]) was 2 µg/mL. It also gave an MIC (S. aureus; MRSA, WA2–CA-MRSA (ST78), absence of FBS) of 4 µg/mL, an MIC (S. aureus; MRSA, WA84–CA-MRSA (ST45), absence of FBS) of 4 µg/mL and an MIC (S. aureus; MRSA, WSPP – PVL neg CA MRSA (ST30), absence of FBS, read-out: MIC) of 2 µg/mL. It also gave an MIC50 (S. aureus; S2 Table isolates, 10% FBS) of 32 µg/mL, an MIC90 (S. aureus; S2 Table isolates, 10% FBS) of 32 µg/mL and an MIC50 (S. aureus; [24]) of 2 µg/mL. The MIC90 (S. aureus; [24]) was 4 µg/mL, the MIC (S. aureus; [25]) was 32 µg/mL and the MIC (S. aureus; [26]) was 2 µg/mL. It also gave an MIC (S. aureus; [27]) of 32 µg/mL, an MIC (S. aureus; [28]) of 4 µg/mL and an MIC (S. aureus; [29]) of 32 µg/mL. For the same compound, the MIC (S. aureus; [30]) was 4 µg/mL, the MIC (S. aureus; [31]) was 32 µg/mL and the MIC (S. aureus; [32]) was 4 µg/mL. For the same compound, the MIC (S. aureus; [33]) was 32 µg/mL, the MIC (S. aureus; [34]) was 2 µg/mL and the AUC(0-inf) [1, 35] was ~27.9^ a h*μM. The “Plasma CL” value [1, 35] was ~9.5^ a mL/min/kg, the AUC(0-inf) ([1]; male, Swiss (outbred), mouse, plasma, iv, 5 mg/kg, male Swiss outbred mice, read-out: AUC0-inf) was 27.9 µM·h and the clearance ([1]; male, Swiss (outbred), mouse, plasma, iv, 5 mg/kg, male Swiss outbred mice, read-out: Plasma CL) was 9.5 mL/min/kg. For the same compound, the “Adverse signs after parenteral (IV) administration” value ([1]; mice, IV 5 mg/kg, 5 mg/kg) was “adverse neurological signs; also recorded: adverse clinical signs”, the half-life ([1]; mouse, plasma, male Swiss outbred mice, IV 5 mg/kg, read-out: Apparent t½ (converted)) was about 8.2 h and the Vd ([1]; mouse, plasma, male Swiss outbred mice, IV 5 mg/kg, read-out: Plasma VSS) was about 5.9 L/kg.
